From US3969518A, “Inhibiting xanthine oxidase with 3-haloalkyl substituted benzothiadiazine-1,1-dioxides” (Merck & Co., Inc., priority 1972, dated 1976)

Target: xanthine oxidase (Bos taurus, UniProt P80457)
Experiment: in vitro xanthine oxidase inhibition (hypoxanthine substrate, absorbance at 292, pH 7.4 buffer; Baker et al procedure)
Format: biochemical
Conditions: 1 min, test compound at 2 × 10^-6 (footnote 1), hypoxanthine 6 × 10^-5 M solution, 1 minute
Experimental: The procedure used employed the principals described in J. Pharm.
A reference cuvette is filled with 0.05M pH 7.4 buffer. For the control, mix quickly in a cuvette 2 ml. hypoxanthine solution (6 × 10^-^5 M), 2 ml.

xanthine oxidase, sequence (P80457 whole entry): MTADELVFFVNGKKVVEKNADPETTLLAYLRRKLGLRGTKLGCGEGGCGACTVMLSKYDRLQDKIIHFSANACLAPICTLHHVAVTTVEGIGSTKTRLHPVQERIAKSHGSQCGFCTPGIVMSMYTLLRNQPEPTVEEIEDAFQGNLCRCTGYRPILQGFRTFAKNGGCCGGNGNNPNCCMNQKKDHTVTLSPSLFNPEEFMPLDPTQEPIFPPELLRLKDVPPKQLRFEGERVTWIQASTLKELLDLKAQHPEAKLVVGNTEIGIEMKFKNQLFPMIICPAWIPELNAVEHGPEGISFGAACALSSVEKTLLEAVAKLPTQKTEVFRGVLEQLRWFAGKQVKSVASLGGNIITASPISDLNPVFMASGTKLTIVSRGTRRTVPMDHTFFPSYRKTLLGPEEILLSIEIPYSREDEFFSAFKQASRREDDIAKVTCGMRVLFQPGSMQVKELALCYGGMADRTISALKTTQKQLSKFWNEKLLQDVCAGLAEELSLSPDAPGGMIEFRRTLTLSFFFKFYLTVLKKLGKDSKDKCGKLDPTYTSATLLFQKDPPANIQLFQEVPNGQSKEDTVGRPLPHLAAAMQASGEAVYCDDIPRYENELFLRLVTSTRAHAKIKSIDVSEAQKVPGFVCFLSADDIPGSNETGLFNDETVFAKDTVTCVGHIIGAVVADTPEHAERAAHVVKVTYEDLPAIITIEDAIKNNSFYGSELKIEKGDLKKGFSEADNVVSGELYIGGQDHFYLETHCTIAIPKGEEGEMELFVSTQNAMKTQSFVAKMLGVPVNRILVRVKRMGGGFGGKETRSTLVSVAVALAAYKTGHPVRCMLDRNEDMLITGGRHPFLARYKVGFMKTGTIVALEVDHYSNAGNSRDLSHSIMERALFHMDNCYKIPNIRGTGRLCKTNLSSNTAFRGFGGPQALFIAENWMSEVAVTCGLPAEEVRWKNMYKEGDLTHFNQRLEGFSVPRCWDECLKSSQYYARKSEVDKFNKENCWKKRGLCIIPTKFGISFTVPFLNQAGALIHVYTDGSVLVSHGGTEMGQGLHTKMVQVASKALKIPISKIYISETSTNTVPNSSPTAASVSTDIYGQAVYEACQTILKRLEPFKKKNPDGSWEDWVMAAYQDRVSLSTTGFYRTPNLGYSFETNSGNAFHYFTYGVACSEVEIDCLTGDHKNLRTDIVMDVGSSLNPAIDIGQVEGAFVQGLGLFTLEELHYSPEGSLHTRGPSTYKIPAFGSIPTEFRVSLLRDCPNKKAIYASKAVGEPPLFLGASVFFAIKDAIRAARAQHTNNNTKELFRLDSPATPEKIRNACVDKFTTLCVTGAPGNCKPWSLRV

SMILES	inhibition at 2 µM [%]
CN(C)S(=O)(=O)c1cc2c(cc1Cl)N=C(CCl)NS2(=O)=O [3-Chloromethyl-6-chloro-7-N,N-dimethylsulfamoyl-1,2,4-benzothiadiazine-1,1-dioxide]	52

Same assay, conditions: test compound 2 × 10^-5 M, hypoxanthine 6 × 10^-5 M solution, 1 minute

SMILES	inhibition at 20 µM [%]
CCN(CC)S(=O)(=O)c1cc2c(cc1Cl)N=C(CCl)NS2(=O)=O	75
CCN(CC)S(=O)(=O)c1cc2c(cc1Cl)N=C(C(Cl)Cl)NS2(=O)=O	18
C=CCN(CC=C)S(=O)(=O)c1cc2c(cc1Cl)N=C(CCl)NS2(=O)=O	53
CN(C)S(=O)(=O)c1cc2c(cc1Cl)N=C(C(Cl)Cl)NS2(=O)=O	11
NS(=O)(=O)c1cc2c(cc1Cl)N=C(CCl)NS2(=O)=O	24
CCCN(CCC)S(=O)(=O)c1cc2c(c(Cl)c1Cl)N=C(C(Cl)(Cl)Cl)NS2(=O)=O	26
CCCN(CCC)S(=O)(=O)c1cc2c(c(Cl)c1Cl)N=C(CCl)NS2(=O)=O	33
CCCN(CCC)S(=O)(=O)c1cc2c(c(Cl)c1Cl)N=C(C(Cl)Cl)NS2(=O)=O	21
CCCN(CCC)S(=O)(=O)c1cc2c(cc1Cl)N=C(CBr)NS2(=O)=O	30
CCCN(CCC)S(=O)(=O)c1cc2c(cc1Cl)N=C(CCl)NS2(=O)=O	69
CCCN(CCC)S(=O)(=O)c1cc2c(cc1Cl)N=C(C(Cl)Cl)NS2(=O)=O	12

The next lines start with the values.

inhibition at 20 µM [%]	SMILES
63	CCNS(=O)(=O)c1cc2c(cc1Cl)NC(C(Cl)(Cl)Cl)NS2(=O)=O (centres unmarked)
6	C=CCN(CC=C)S(=O)(=O)c1cc2c(cc1Cl)NC(C(Cl)(Cl)Cl)NS2(=O)=O (centres unmarked)
16	CNS(=O)(=O)c1cc2c(cc1Cl)NC(C(Cl)(Cl)Cl)NS2(=O)=O (centres unmarked)
45	NS(=O)(=O)c1cc2c(cc1Cl)NC(C(Cl)(Cl)Cl)NS2(=O)=O (centres unmarked)
3	CCN(CC)S(=O)(=O)c1cc2c(cc1Cl)N=C(C(Cl)(Cl)Cl)NS2(=O)=O
6	CCNS(=O)(=O)c1cc2c(cc1Cl)N=C(C(Cl)Cl)NS2(=O)=O
13	CN(C)S(=O)(=O)c1cc2c(cc1Cl)N=C(C(C)(Cl)Cl)NS2(=O)=O
5	CN(C)S(=O)(=O)c1cc2c(cc1Cl)N=C(C(Cl)(Cl)Cl)NS2(=O)=O
78	CNS(=O)(=O)c1cc2c(cc1Cl)N=C(CCl)NS2(=O)=O
14	CCCN(CCC)S(=O)(=O)c1cc2c(cc1Cl)N=C(C(Cl)(Cl)Cl)NS2(=O)=O
6	CCCN(CCC)S(=O)(=O)c1cc2c(cc1Cl)NC(C(Cl)(Cl)Cl)NS2(=O)=O (centres unmarked) [3-Trichloromethyl-6-chloro-7-N,N-di-n-propylsulfamoyl-3,4-dihydro-1,2,4-benzothiadiazine-1,1-dioxide]
